Data reported in patent publication EP0274158B1, “Novel heterocycle-substituted diphosphonate compounds, pharmaceutical compositions, and methods of treating abnormal calcium and phosphate matabolism” (Norwich Eaton Pharmaceuticals, Inc., priority 1986, dated 1988).

Columns and labels:
skeleton = conditions: Technetium-99m labelled, bone scintigraphy; Unterspann 1976; cited from earlier work
hamsters' incisors = conditions: parenteral administration to hamsters; Landeck and Binus 1980; cited from earlier work
[1] = system: parathyroid hormone (PTH)-induced rise in serum total and ionized calcium levels; experiment: Thyroparathyroidectomized (TPTX) rat model, in vivo bone resorption inhibition potency; design: species or system male Wistar rats; conditions: subcutaneous injection, daily for 4 days, TPTX rats, PTH challenge; lowest dose that decreases the rise in serum calcium
Protocol: The compounds are evaluated for in vivo bone resportion inhibition potency by an animal model system known as the thyroparathyroidectomized (TPTX) rat model. The general principles of this model system are disclosed in Russell et al., Calcif. Tissue Research, 6, 183-196 (1970), and in Muhlbauer and Fleisch, Mineral Electrolyte Metab., 5, 296-303 (1981), the disclosures of which are incorporated herein by reference. The basic biochemical concept of the TPTX system is inhibition of the parathyroid hormone (PTH)-induced rise in serum total and ionized calcium levels by the respective bone active polyphosphonates.
Low calcium and low phosphorous diets used are prepared by Teklad^R Test Diets (Harlan Industries, Madison, Wisconsin 53711) in a pellet form of approximately 0.18% calcium and 0.22% phosphorous. The diets contain all the essential vitamins and minerals required for the rat, with the exception of calcium and phosphorous. The calcium and phosphorous levels of the pellets are verified analytically.
PTH is acquired as a powdered bovine extract (Sigma Chemical Co., P. O. Box 14508, St. Louis, Missouri, order #P-4410). PTH is prepared in 0.9% saline such that the final concentration is 100 µg PTH/ml, or approximately 200 U.S.P. units/ml. All solutions are filtered through a #4 Whatman Filter Paper and refiltered through a 0.45 µm Metricel ^R filter.
All solutions of compounds to be tested for bone resorption inhibition potency are prepared for subcutaneous injection in 0.9% normal saline and adjusted to pH 7.4 using NaOH and/or HCl. Dose solution calculation is made by considering the mass of powder (based on molecular weight, hydration) of the active material in mg/kg (body weight) that corresponds to mg P/kg. Concentrations are based on dosing 0.2 ml/100 grams of body weight. Typically, all compounds are administered at 0.01, 0.1, and 1.0 mg P/kg/day for 4 days in order to determine the lowest effective dose ("LED"). Where necessary the test is repeated, whereby the animals are administered with 0.5 LED in order to refine the determination of LED. Adjustments in dosage based on changes in body weight are made on a daily basis.
In this study 50 male Wistar rats weighing approximately 150-160 grams are thyroparathyroidectomized surgically by the breeder (Charles River Breeding Laboratories). All rats are double housed on arrival in suspended cages with Purina Laboratory Rodent Chow^R and tap water ad libitum. After acclimation to the laboratory environment for 3-5 days, the rats are placed on a low calcium, low phosphorous (.18%/.22%) diet (Teklad^R) and given 2% (W/V) calcium gluconate supplemented deionized water via water bottles.
On day three of low calcium diet, all rats are weighed. On day four, all rats are anesthetized with Ketaset^R (Ketamine Hydrochloride, 100 mg/ml, Bristol Myers), 0.10 ml/rat, and then bled from the retro-orbital venous plexus for serum total calcium analysis using Flame Atomic Absorption (FAA) or Nova 7+7 Automated Calcium Analyzer. All rats weighing less than 150 grams are eliminated from the study. Animals are then randomized statistically such that the mean total serum calcium for each group is the same. Only rats deemed hypocalcemic (total serum calcium ≦8.0 mg/dl) are placed in study groups comprising six animals per group.
Treatments with the various experimental compounds commence on day 6 and last through day 9 of the study. Dose solutions are prepared to be given at a constant rate of 0.2 ml/100 grams of body weight subcutaneously in the vental skin flap where the hind leg meets the torso. All rats are weighed and dosed daily. A 25 gauge 5/8" needle is used to administer drug, alternating right and left dose sites daily. On day 8, animals are changed to deionized, distilled water via water bottles. On day 9 all rats are fasted in the afternoon at approximately 4:0 P.M. On day 10 of study no treatment is given. […]

bone resorption [2] = experiment: Schenk model, in vivo bone resorption inhibition; design: species or system male Sprague Dawley rats; conditions: subcutaneous injection, daily for 7 days, tibia metaphyseal trabecular bone content
Protocol: The compounds are evaluated for in vivo bone resorption inhibition and mineralization inhibition in an animal model system known in the field of bone metabolism as the Schenk Model. The general principles of this model system are disclosed in Shinoda et al., Calcif.
Preweaning 17-day-old (30 gms) male Sprague Dawley rats (Charles River Breeding Laboratories) are shipped with their mothers and placed in plastic cages with their mothers upon arrival. At 19 days of age, pups receiving Rat Chow and water ad libitum are randomly allocated into treatment or control groups comprising seven animals per group. On day 1 and again on day 7 all animals are given an intraperitoneal ("IP") injection of Calcein (1% solution in 0.9% saline solution; dosed at 0.2 ml/100 g body weight). On day 4 all animals are given an IP injection of tetracycline hydrochloride (1% solution in 0.9% saline solution; dosed at 0.2 ml/100 g body weight). These compounds label actively mineralizing bone and cartilage.
All solutions are prepared for subcutaneous injection in 0.9% normal saline and adjusted to pH 7.4 using NaOH and/or HCl. Dose solution calculation is made by considering the mass of powder (based on molecular weight, hydration) of the active material in mg/kg (body weight) that corresponds to mgP/kg. Concentrations are based on dosing 0.2 ml/100 g body weight. […] Compounds showing activity at 0.1 mg P/kg/day are then tested at logarithmic decrements down to 0.001 mg P/kg/day. Adjustments in dosage based on changes in body weight are made on a daily basis.
On day 8 after the start of dosing, all animals are sacrificed by IP overdose of pentabarbitol. Tibias are dissected free and placed in 70% ethyl alcohol. […] The tibia is sectioned longitudinally through the metaphyseal area. Specimens are stained on one surface with silver nitrate and mounted on microscope slides for evaluation with a Quantimet Image Analyzer (Cambridge Instruments, Inc.) using both incandescent and ultraviolet illumination. Metaphyseal trabecular bone content is measured in the region between the fluorescent label and the growth plate: expressed as percent of total area (bone + marrow). Epiphyseal growth plate width is obtained as the mean value of 10 equally-spaced measurements across the section.
Statistical evaluation of data is made using parametric and non-parametric analysis of variance and Wilcoxons rank sum test to determine a statistically significant effect compared to control animals.
The Schenk model provides data for in vivo bone resorption inhibition by the compounds.

bone resorption [3] = experiment: Capsules given orally to a patient afflicted with osteoporosis (Example 6); assay type: in vivo; conditions: 25 mg P per capsule, orally twice daily for 6 months, patient of approximately 70 kilograms
Protocol: Capsules are prepared by conventional methods, comprised as follows: […]

[4] = system: hypercalcemia of malignancy; experiment: Injectable solution in patients with hypercalcemia of malignancy (Example 8); assay type: in vivo; conditions: 0.07 mg P in 1.0 ml saline, pH 7.4, one injection daily for 4 days, patients of approximately 70 kilograms
Protocol: Injectable solutions are prepared by conventional methods using 1.0 ml of physiological saline solution and 0.07 mg P of N-(2'-(3'-methyl)-piperidinylidene)-amino-methane diphosphonic acid, adjusted to pH = 7.4.

bone resorption [5] = experiment: Tablets given orally to a patient afflicted with Paget's disease (Example 7); assay type: in vivo; conditions: 25 mg P per tablet, orally twice daily for 6 months, patient of approximately 70 kilograms
Protocol: Tablets are prepared by conventional methods, formulated as follows: […]

SMILES | Lowest Effective (Antiresorptive) Dose-TPTX [1] [mg P/kg] | Lowest Effective (Antiresorptive) Dose - Schenk; Schenk LED (bone resorption [2]) [mg/P/kg] | other results
O=P(O)(O)C(N1CCCCC1)P(=O)(O)O [N-piperidinyl-methane-diphosphonic acid] |  |  | skeleton activity compared with EHDP (skeleton): less skeleton activity than EHDP; effect on the mineralization of the incisors (hamsters' incisors): Little or no effect on the mineralization of the incisors
CC(O)(P(=O)(O)O)P(=O)(O)O [EHDP, ethane-1-hydroxy-1,1-diphosphonic acid] | 1.0 | 1.0 | 
O=P(O)(O)C(CC1CCCCN1)P(=O)(O)O (stereo not shown) [2-(2'-piperidinyl)-EDP, 2-(2'-piperidinyl)-ethane-1,1-diphosphonic acid] | 0.01 | 0.01 | bone resorption in a patient afflicted with osteoporosis (bone resorption [3]): substantially reduce bone resorption
CC1CCCN=C1NC(P(=O)(O)O)P(=O)(O)O (stereo not shown) [N-(2'-(3'-methyl)piperidinylidene)AMDP, N-(2'-(3'-methyl)-piperidinylidene)-amino-methane diphosphonic acid] | 0.001 | 0.001 | alleviation of hypercalcemia of malignancy [4]: appreciable alleviation of hypercalcemia of malignancy
O=P(O)(O)C(Cl)(Cl)P(=O)(O)O [Cl₂MDP, dichloromethane DP] | 1.0 | 1.0 | 
NCCC(O)(P(=O)(O)O)P(=O)(O)O [APD, 3-amino propane-1-hydroxy-1,1-DP] | 0.1 | 0.1 | 
O=P(O)(O)C(O)(CC1CCCCN1)P(=O)(O)O (stereo not shown) [2-(2'-piperidinyl)-1-hydroxy-ethane-1,1-diphosphonic acid] |  |  | bone resorption in a patient afflicted with Paget's disease (bone resorption [5]): substantially reduce bone resorption
O=P(O)(O)C(NC1=NCCCN1)P(=O)(O)O [N-(2'-(1',3'-diazinylidene))AMDP, N-(2'-(1',3'-diazinylidene))-aminomethane diphosphonic acid] | 0.001 |  | 
